{"source": "patent US5494803A", "about": "“Immunodiagnostic assay using liposomes carrying labels thereof on outer liposome surface” (North Carolina State University, priority 1994, dated 1996)", "key": {"[1]": {"target": "anti-biotin antibody (ABA)", "assay": "C^14-biotin adsorption to antibody-coated PMMA slides (radioimmunoassay isotherm, Langmuir fit)", "type": "binding", "description": "The adsorption of biotin to the antibody-coated PMMA surface was studied by exposing the surfaces to C^14 -labeled biotin, washing the slides, and determining the amount of radioactivity remaining on the solid support at different initial concentrations of biotin in the bulk solution. Four PMMA slides (1.5 cm×1.5 cm) coated with antibody, as described above, were incubated in 10 ml of C^14 -biotin PBS solutions in the concentration range from 10^-8 to 10^-4 M. After a ninety minute exposure, the slides were dipped quickly in 200 ml of deionized water to remove unbound C^14 -biotin from the surface. The radioactivity of the slides was determined by scintillation counting. […] As a control, the non-specific adsorption of C^14 -biotin to PMMA alone and to BSA-covered PMMA was tested the same way, using a C^14 -biotin concentration of 10^-4 M.\nThe ability of the antibody-covered surface to bind biotin based on the results of radioimmunoassays is indicated by the isotherm shown in FIG. 3. The number of moles of biotin bound per unit area of surface is shown as a function of the initial concentration of biotin to which the surface was exposed. […] Assuming that each antibody molecule adsorbed to the surface can bind two biotin molecules, this corresponds to 0.88×10^-12 moles of active ABA/cm^2. […]\nThe quantity av is the ratio (A/V) which equals 1.88 cm^-1 in these experiments. […]"}, "[2]": {"tested_on": "anti-biotin antibody (ABA)", "procedure": "The adsorption of fluorescent biotin-conjugated liposomes and FITC-Biotin to the surface of the PMMA cuvettes was studied by measuring the amount of fluorescence remaining on the surface of the cuvette after exposure to a known concentration of fluorescent species and a washing step with PBS. One milliliter of solution containing fluorescent species was injected into the inlet of the cuvette 27 with a syringe, and the solution was allowed to stand in the cuvette for either half an hour or an hour, depending on the experiment. Unbound fluorescent molecules were then washed from the cuvette by pumping PBS with a peristaltic pump at a flow rate of 1 /min. After washing, the shutter 22 on the laser 21 was opened for a few seconds, until the digital reading on the photomultiplier tube counter 30 stabilized. This was recorded as the fluorescent signal in kilo-counts per second (KCPS) coming from the interface. […] This was done when it was necessary to investigate the role of the washing step in reducing the measured fluorescence signal. […]\nThe maximum signal obtained for adsorbed vesicles, at very high molar concentrations of liposomes, is approximately 1250 KCPS. The quantity λL is estimated by taking the measured fluorescence at a given set of concentrations, and dividing by the maximum signal value for full surface coverage."}, "[3]": {"tested_on": "Anti-Biotin Antibody", "details": "half-hour exposure, ten-minute PBS wash", "procedure": "PMMA cuvettes were cleaned by sonication for twelve hours in RBS solution, followed by sonication in deionized water for twenty-four hours. The cuvettes were incubated in 0.2 ml of 40 μg/ml of anti-biotin antibody (ABA) solution in PBS for two hours at room temperature and rinsed with 0.4 ml PBS twice to remove unbound antibody. The cuvettes were then incubated in 0.2 ml of 3 weight % BSA solution in PBS as a blocking agent for one hour at room temperature, and rinsed twice with 0.4 ml of PBS. […]\nA manual shutter 22 was attached to the laser so that essentially no light would reach the sample when the shutter was closed. […] The emitted fluorescence was detected by a photomultiplier tube 29 (Hamamatsu Co., Hamamatsu, Japan). A 520 nm filter 28 was placed on top of the tube so that only the emitted light from fluorescein would be measured. The output from the photomultiplier 29 was sent to a preamplifier, not shown, (Model C716, Hamamatsu) and recorded using a digital photon counter 30 (Model C1230, Hamamatsu). […]\nThe adsorption of fluorescent biotin-conjugated liposomes and FITC-Biotin to the surface of the PMMA cuvettes was studied by measuring the amount of fluorescence remaining on the surface of the cuvette after exposure to a known concentration of fluorescent species and a washing step with PBS. […]"}}}
{"compound": "O=C(O)CCCC[C@@H]1SC[C@@H]2NC(=O)N[C@@H]21", "note": "[biotin]", "values": [{"measurement": "Kd", "setting": "[1]; Langmuir isotherm best fit, PMMA coated with ABA, blocked with BSA, PBS, read-out: equilibrium binding constant K (KB) of biotin on adsorbed ABA (converted)", "value": 400, "unit": "nM"}, {"measurement": "saturation level of biotin bound per unit area of surface", "setting": "[1]; biotin concentrations greater than 10^-4 M", "value": "approximately 1.8×10^-12 moles of biotin/cm^2"}, {"measurement": "free biotin concentration at which the decrease in fluorescence commences (experimental)", "setting": "[2]; liposomes 0.01 or 0.03 mg/ml", "value": "approximately 2×10^-5 M"}, {"measurement": "free biotin concentration at which fluorescence should decrease significantly (simple Langmuir model)", "setting": "[2]; predicted from KB and KL", "value": "approximately 4×10^-7 M"}]}
{"compound": "fluorescein isothiocyanate-biotin [FITC-Biotin]", "values": [{"measurement": "association constant of FITC-Biotin to ABA (in words)", "setting": "[3]", "value": "very low association constant"}]}
